Data on 78 molecules can be found in patent US10940139B2, “Compounds that interact with the Ras superfamily for the treatment of cancers, inflammatory diseases, rasopathies, and fibrotic disease” (Shy Therapeutics LLC, priority 2017, dated 2021).

For the first test, the target named is KRas G12D/Q61H double mutant (Homo sapiens (Human), UniProt P01116, G12D/Q61H). In words: Ras GTP binding domain inhibition assay (labeled GTP). As to conditions: 20 μM compound; KRas G12D/Q61H double mutant; read-out: % Inhibition at 20 μM of K-Ras mutant and wild-type protein, KRas G12D Q61H. How it is done: Buffer-I: • 50 mM Tris, pH 7.5 • 150 mM NaCl (optional) • 1 mM MgCl2 • 1 mM DTT. • KRas G12D mutant protein was expressed as a His-tagged protein. Purified His-KRas G12D protein was diluted in buffer-I to a final concentration of 3-10 μg/ml. • 200 μl of the diluted His-KRas G12D protein was added to a nickel coated 96 well plate and incubated overnight at 4° C. • The next day, wells were washed 3× in 200 μl of Buffer-I. • Then 200 μl of Buffer-I were added to each well in the presence of 1% DMSO. • Tested compounds were added to the protein-coated wells at a concentration of 20 μM, and incubated for 3 hours at room temperature. While performing IC50 measurements a serial dilution of all tested concentrations was prepared.
Chain of KRas G12D/Q61H double mutant (P01116-2 other isoform, or with tags, fused parts or gaps G12D/Q61H): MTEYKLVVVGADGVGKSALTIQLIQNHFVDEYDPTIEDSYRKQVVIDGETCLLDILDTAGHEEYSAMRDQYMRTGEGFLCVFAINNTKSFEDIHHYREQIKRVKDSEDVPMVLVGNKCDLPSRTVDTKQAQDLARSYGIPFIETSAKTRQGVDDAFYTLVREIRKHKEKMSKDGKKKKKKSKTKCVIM
Then 22 μl of Cy3-GTP or Cy5-GTP was added to each well. The labeled GTP was incubated for 45 min. at room temperature. • Following GTP incubation, wells were washed 3× in Buffer-I, and 200 μl of Buffer-I were added to each well. • Following washes, the amount of bound labeled-GTP was measured with an Eppendorf AF2200 plate reader.
By substituting KRas G12D mutant protein with KRas G12C mutant, KRas wild type, KRas Q61H mutant, KRas G12D/Q61H double mutant or KRas G12C/Q61H double mutant under the assay conditions described above, KRas G12C mutant KRas wild type, KRas Q61H mutant, KRas G12D/Q61H double mutant and KRas G12C/Q61H double mutant inhibition, respectively, were each determined.
For the molecule `CCn1c(SCc2csc(-c3ccc(OC)c(OC)c3)n2)nc2ccccc21`, the inhibition at 20 µM was in the range of 25 to 50%.

With `C#CCN(Cc1ccc(C)cc1)c1ccc(C#N)cc1[N+](=O)[O-]`, the inhibition at 20 µM fell in the range of 1 to 25%.

As to `CCN(c1ncc(C(=O)OC)s1)S(=O)(=O)c1ccc(C)c(C)c1`, the inhibition at 20 µM fell in the range of 51 to 75%.

`CCOc1ccc(Nc2ccc([N+](=O)[O-])cc2S(=O)(=O)N(CC)CC)cc1`: the inhibition at 20 µM was 25 to 50%.

For `CCCn1c(CNc2cccc(Cl)c2OCCOCC)nc2cc(S(=O)(=O)N(C)C)ccc21`, the inhibition at 20 µM was in the range of 25 to 50%.

On to `Cc1sc2nc(-c3ccccn3)nc(NCC(=O)N3CCC(O)CC3)c2c1-c1ccccc1`, for which the inhibition at 20 µM lay within 25 to 50%.

Take `COc1ccc(-c2oc3ncn(CCCn4ccnc4)c(=N)c3c2-c2ccc(OC)cc2)cc1`: the inhibition at 20 µM lay in the range of 25 to 50%.

As to `CCCn1c(-c2cccc(C)c2)nnc1S(=O)(=O)Cc1csc(-c2cccc(OC)c2)n1`, the inhibition at 20 µM is 51 to 75%.

In the case of `COc1ccc(OCCCn2c(C(F)(F)F)c(Br)cnc2=O)cc1`, the inhibition at 20 µM lay in the range of 25 to 50%.

For `CN(Cc1ccccc1N1CCOCC1)C(=O)c1ccc(OCc2ccccc2)cc1`, the inhibition at 20 µM lay within 1 to 25%.

`Cc1cc(C)c(-c2csc(C3CC3)n2)cc1C`: the inhibition at 20 µM lay within 25 to 50%.

Take `Cc1cc(C)c(S(=O)(=O)Nc2ccc(Oc3ccccc3C#N)nc2)c(C)c1`: the inhibition at 20 µM lay in the range of 25 to 50%.

Take `COC(=O)CCc1sc(NC2CCCCC2)nc1-c1ccc(OC)cc1`: the inhibition at 20 µM was 25 to 50%.

On to `CC1CN(C(=O)CSc2nnc(Cc3cccc4ccccc34)n2C2CCCCC2)CC(C)O1` (stereo not drawn), for which the inhibition at 20 µM is 25 to 50%.

Take `CCCCOCCN(C(=O)c1ccn(-c2ccccc2)n1)c1ccccc1Br`: the inhibition at 20 µM was in the range of 25 to 50%.

Take `CC(NC(=O)C1CSC(c2ccccc2)=N1)c1ccccn1` (stereo not drawn): the inhibition at 20 µM was in the range of 1 to 25%.

Still in this test, the particulars now being: 20 μM compound; read-out: % Inhibition at 20 μM KRas G12D Q61H.
Take `COC(=O)c1ccc(C(=O)NCC(c2ccccc2)N2CCOCC2)nc1` (stereo not drawn): the inhibition at 20 µM is 1 to 25%.

For the molecule `Cc1cc(C2CCCN2c2nccc(C(F)(F)F)n2)no1` (stereo not drawn), the inhibition at 20 µM was in the range of 25 to 50%.

Regarding `Cc1nccc(-c2nc3cc(F)ccc3c(=O)[nH]2)n1`, the inhibition at 20 µM fell in the range of 76 to 100%.

In the case of `N#CC1CN(c2nccc(C(F)(F)F)n2)CCN1Cc1ccccc1` (stereo not drawn), the inhibition at 20 µM lay in the range of 1 to 25%.

With `O=C(Nc1nnc(-c2ccccn2)[nH]1)C1CC(=O)N(C2CCCC2)C1` (stereo not drawn), the inhibition at 20 µM is 25 to 50%.

As for `COCCOCCN(C)C(=O)c1csc2c(O)nc(-c3ccccn3)nc12` [drawing 2686], the inhibition at 20 µM fell in the range of 51 to 75%.

In the case of `COc1ccccc1CN(Cc1cccs1)C(=O)c1ccc(N2CCCS2(=O)=O)cc1`, the inhibition at 20 µM fell in the range of 25 to 50%.

Regarding `CN(C(=O)c1ccc(COc2ccccc2F)o1)c1nccs1`, the inhibition at 20 µM was in the range of 25 to 50%.

For `O=c1[nH]c(-c2cnccn2)nc2ccccc12`, the inhibition at 20 µM was in the range of 1 to 25%.

For the molecule `CCOC(=O)c1ccc(C(=O)NCCc2ccc(C(F)(F)F)cc2)nc1C`, the inhibition at 20 µM fell in the range of 25 to 50%.

With `CC(Oc1ccc(F)cc1)c1nnc(SCCOc2ccc(F)cc2)o1` (stereo not drawn), the inhibition at 20 µM fell in the range of 25 to 50%.

Consider `O=C(Nc1nc(-c2ccccn2)cs1)c1ccc(=O)[nH]c1`, for which the inhibition at 20 µM lay in the range of 25 to 50%.

Take `CC(Nc1nc(-c2ccccn2)nc2c1CCC2)c1ccncc1` (stereo not drawn): the inhibition at 20 µM is 25 to 50%.

For `CCOCc1c(C(=O)N(Cc2cccs2)Cc2ccccc2OC)oc2ccccc12`, the inhibition at 20 µM fell in the range of 1 to 25%.

For the molecule `Cc1nc(C2CN(Cc3ccccc3F)CCO2)no1` (stereo not drawn), the inhibition at 20 µM lay in the range of 25 to 50%.

For the molecule `CCOc1ccc(S(=O)(=O)N(CC(=O)N2CCc3ccccc32)Cc2ccco2)cc1`, the inhibition at 20 µM lay in the range of 25 to 50%.

As for `Cc1cccc(CN(Cc2ccccn2)Cc2ncc(C(C)(C)C)o2)c1`, the inhibition at 20 µM lay in the range of 1 to 25%.

Take `c1ccc(Oc2ccccc2NCc2nc(C3CC3)no2)cc1`: the inhibition at 20 µM is 25 to 50%.

With `CN1CCN(Cc2nnc(-c3ccccc3Cl)o2)c2ccc(F)cc21`, the inhibition at 20 µM was 25 to 50%.

On to `COc1cc(CC(=O)Nc2nnc(-c3ccccn3)[nH]2)cc(OC)c1OC`, for which the inhibition at 20 µM lay within 25 to 50%.

In the case of `Cc1nc(CN(Cc2ccccc2[N+](=O)[O-])C(C)c2ccc(Cl)cc2)oc1C` (stereo not drawn), the inhibition at 20 µM was in the range of 25 to 50%.

In the case of `CCN(CC)S(=O)(=O)c1ccc(NCCOC)c(C(=O)NCCC(C)C)c1`, the inhibition at 20 µM fell in the range of 1 to 25%.

For `Cc1cccc(OCCn2c(CN3CCCCC3)nc3ccccc32)c1C`, the inhibition at 20 µM lay within 1 to 25%.

Take `O=C(Nc1nc(-c2ccccn2)cs1)c1cc(F)cc(F)c1`: the inhibition at 20 µM lay in the range of 1 to 25%.

As for `COc1ccc(CCNC(=O)c2cc(S(=O)(=O)C3CCCCCC3)ccc2OC)cc1OC`, the inhibition at 20 µM was in the range of 25 to 50%.

For `CCOC(=O)NC1CCN(C(=O)c2csc3c(O)nc(N)nc23)CC1` [drawing 2667], the inhibition at 20 µM is 1 to 25%.

For the molecule `Cc1ccc(OCCn2c(CN3CCCCC3)nc3ccccc32)cc1`, the inhibition at 20 µM lay in the range of 25 to 50%.

`COc1c(C)cnc(CN2CCCCC2c2ncc[nH]2)c1C` (stereo not drawn): the inhibition at 20 µM is 25 to 50%.

Turning to `Cc1[nH]c(-c2ccccn2)nc(=O)c1C`, the inhibition at 20 µM was in the range of 25 to 50%.

Regarding `CC(C)CCC(=O)Nc1nnc(-c2ccccn2)[nH]1`, the inhibition at 20 µM fell in the range of 25 to 50%.

For `O=C(Nc1nnc(-c2ccccn2)[nH]1)C(F)(F)c1ccccc1`, the inhibition at 20 µM was 25 to 50%.

As to `COc1ccccc1CN(Cc1cccs1)C(=O)c1ccc(-c2nc(C)no2)cc1`, the inhibition at 20 µM lay in the range of 1 to 25%.

Take `Cc1nc(CN(Cc2ccccc2)Cc2ccccc2)no1`: the inhibition at 20 µM was in the range of 25 to 50%.

As for `O=C(CCc1nc2ccccc2[nH]1)Nc1nnc(-c2ccccn2)[nH]1`, the inhibition at 20 µM lay within 51 to 75%.

Take `O=C(c1ccccc1)N1CCCc2c(O)nc(-c3ccccn3)nc21`: the inhibition at 20 µM was 25 to 50%.

Consider `COCC(O)CN1CCC(Nc2nc(-c3ccccn3)nc3c2CCC3)CC1` (stereo not drawn), for which the inhibition at 20 µM lay within 25 to 50%.

On to `N#Cc1ccc(CC(=O)Nc2ccnc(-c3ccccn3)n2)cc1` [drawing 2700], for which the inhibition at 20 µM lay in the range of 25 to 50%.

For the molecule `c1cc2c(cc1-c1csc(C3CC3)n1)CCC2`, the inhibition at 20 µM lay in the range of 1 to 25%.

In the case of `CC(C)Cc1cc(C(=O)Nc2cc(-c3cccnc3)n[nH]2)[nH]n1`, the inhibition at 20 µM fell in the range of 1 to 25%.

Regarding `CC(OCC1CC1)C(=O)Nc1nnc(-c2ccccn2)[nH]1` (stereo not drawn), the inhibition at 20 µM fell in the range of 25 to 50%.

`Cc1ccc(OCCSc2nnc(C(C)Oc3ccc(F)cc3)o2)cc1` (stereo not drawn): the inhibition at 20 µM fell in the range of 25 to 50%.

Consider `COc1cc2c(cc1OC)CCN(C(=O)c1csc3c(O)nc(-c4ccccn4)nc13)CC2` [drawing 2691], for which the inhibition at 20 µM is 51 to 75%.

With `Nc1nc(O)c2scc(C(=O)N3CCN(c4ccccc4)CC3)c2n1`, the inhibition at 20 µM is 25 to 50%.

Turning to `Cc1ccc2cccc(OS(=O)(=O)N3CCOCC3)c2n1`, the inhibition at 20 µM fell in the range of 25 to 50%.

With `Cc1cc(NCCNC(=O)Cc2ccccc2)nc(-c2ccccn2)n1`, the inhibition at 20 µM was 25 to 50%.

Consider `C#Cc1cccc(N(CC(=O)N2CCOCC2)C(=O)c2ccc(COc3ccccc3F)o2)c1`, for which the inhibition at 20 µM lay within 1 to 25%.

In the case of `COCCN(CCOC)c1nc(-c2ccccn2)nc2scc(C(=O)NCCc3cnc(O)nc3)c12` [drawing 2812], the inhibition at 20 µM lay within 1 to 25%.

Take `Cc1cc(NCCNC(=O)c2ccco2)nc(-c2ccccn2)n1`: the inhibition at 20 µM lay within 25 to 50%.

As to `COc1ccc(S(=O)(=O)N(CC(=O)N2CCCc3ccccc32)Cc2ccco2)cc1`, the inhibition at 20 µM was 25 to 50%.

Still in this test, the particulars now being: 20 μM; read-out: KRas G12D Q61H % Inh.
In the case of `Cc1sc2[nH]c(-c3ccccn3)nc(=O)c2c1-c1ccccc1` [drawing 2586], the inhibition at 20 µM lay within 51 to 75%.

As for `CC(Oc1ccccc1C#N)C(=O)Nc1nnc(-c2ccccn2)[nH]1` (stereo not drawn) [drawing 2510], the inhibition at 20 µM lay in the range of 51 to 75%.

For `CCOc1cc(S(=O)(=O)N(Cc2ccccc2)Cc2ccccc2)c(OCC)cc1C` [drawing 2624], the inhibition at 20 µM lay within 25 to 50%.

As for `CC(Oc1ccc(C(=O)Nc2nnc(-c3ccccn3)[nH]2)cn1)c1ccccc1` (stereo not drawn) [drawing 2512], the inhibition at 20 µM lay within 51 to 75%.

For `CC1CCc2sc(C(=O)Nc3nnc(-c4ccccn4)[nH]3)cc2C1` (stereo not drawn) [drawing 2531], the inhibition at 20 µM was in the range of 51 to 75%.

Consider `Cc1ccc(CC(=O)Nc2nnc(-c3ccccn3)[nH]2)cn1` [drawing 2506], for which the inhibition at 20 µM lay in the range of 51 to 75%.

As to `O=C(Nc1nnc(-c2ccccn2)[nH]1)c1ccc2c(c1)CCO2` [drawing 2455], the inhibition at 20 µM lay within 51 to 75%.

Consider `O=C(Nc1nc(-c2ccccn2)cs1)c1ccc2[nH]cnc2c1` [drawing 2571], for which the inhibition at 20 µM was 51 to 75%.

As to `O=C(COCCOc1ccccc1)Nc1nnc(-c2ccccn2)[nH]1` [drawing 2564], the inhibition at 20 µM was in the range of 76 to 100%.

For the molecule `CCc1ccccc1OCC(=O)Nc1nnc(-c2ccccn2)[nH]1` [drawing 2530], the inhibition at 20 µM was in the range of 51 to 75%.

Take `O=C(Cc1c[nH]c2ccccc12)Nc1nnc(-c2ccccn2)[nH]1` [drawing 2456]: the inhibition at 20 µM is 51 to 75%.

For the molecule `O=C(c1ccc2c(c1)CCO2)N1CCCc2c(O)nc(-c3ccccn3)nc21`, the inhibition at 20 µM lay within 1 to 25%.

On to `Cc1nc(-c2ccccn2)nc(O)c1CCC(=O)NCC1COc2ccccc2O1` (stereo not drawn) [drawing 2599], for which the inhibition at 20 µM was 25 to 50%.
